Like-named read-outs stand apart in the source and are kept apart here. Marks after values point to notes of the source that are not given here.

For test [1], the system named is immunecompromised mice. The test is classed as in vivo. The note with it: for Antibody titer % change compared to control / Antibody titer mean ± S.E.: titre on 5th day; for Antibody titer mean ± S.E.: n=12.
Test [2] concerns immunecompromised mice. The test is classed as in vivo. The note with it: for DTH mean ± S.E.: n=12.
[3] abbreviates: 0.0006 mg/kg p.o., day 0-4, immunecompromised mice.
Setting [4] is: 0.0125 mg/kg p.o., day 0-4, immunecompromised mice.
Setting [5] is: oral, dose levels 0.0062-0.0125 mg Kg^-1, immunecompromised experimental animals.
Setting [6] is: 0.0006 mg/kg p.o., day 0-4, immunecompromised mice, foot thickness on 5th day.
The mark [7] stands for this setting: 0.0125 mg/kg p.o., day 0-4, immunecompromised mice, foot thickness on 5th day.
Where [8] appears, read: 2.5 mg/kg p.o., day 0-4, immunecompromised mice.
Setting [9] is: 2.5 mg/kg p.o., day 0-4, immunecompromised mice, foot thickness on 5th day.
Setting [10] is: 250 mg/kg p.o., day 0-4, SRBC-sensitized mice.

Regarding “3-0-[α-L-rhamnopyranosyl-(1→2)-α-L-rhamnopyranosyl-(1→4)-0-β-D-glucopyranosyl]-25(S)-5β-spirostan-3β-ol [AR-Iv]”, the “Antibody titer % change compared to control” value (shortened to “Antibody titer % change”) with immunecompromised mice [1] (setting [3]) was 56** %; with immunecompromised mice [1] (setting [4]), 78*** %. In addition, the “Antibody titer mean ± S.E.” value in the test with immunecompromised mice [1] (setting [3]) came to 5.60 ± 0.33; with immunecompromised mice [1] (setting [4]), 6.41 ± 0.16. Besides, in the test on immunecompromised mice [1] (setting [5]), the “potentiation of antibody synthesis” value is reported as 55.55-69.44%. Moreover, the entries for the “DTH % change compared to control” value in the test on immunecompromised mice [2] (setting [6]) and with immunecompromised mice [2] (setting [7]) were 78*** % and 102*** %, respectively. Moreover, the “DTH mean ± S.E.” value is recorded as 0.80 ± 0.14 with immunecompromised mice [2] (setting [6]) and 0.91 ± 0.42 in the test on immunecompromised mice [2] (setting [7]). The “enhancement of cell-mediated immune response” value in the test on immunecompromised mice [2] (setting [5]) is 77.77-102.22%.

For the molecule `c1ccc([C@H]2CN3CCSC3=N2)cc1` [LEV, Levamisole, reference compound], in the test with immunecompromised mice [1] (setting [8]), the “Antibody titer % change” value was 89*** % and the “Antibody titer mean ± S.E.” value is on record as 6.80 ± 0.30. Besides, in the test with immunecompromised mice [2] (setting [9]), the “DTH % change compared to control” value was 140*** % and the “DTH mean ± S.E.” value amounted to 1.08 ± 0.14.

In the case of Cyclodextrin [reference compound], in the test with immunecompromised mice [1] (setting [10]), the “Antibody titer % change” value is 45* % and the “Antibody titer mean ± S.E.” value was 3.60 ± 0.33. Besides, the “DTH mean ± S.E.” value in the test on immunecompromised mice [2] (250 mg/kg p.o., day 0-4, SRBC challenge in footpad on 4th day, foot thickness on 5th day) stood at 0.45 ± 0.24. Moreover, the “DTH % change compared to control” value in the test on immunecompromised mice [2] (250 mg/kg p.o., day 0-4, foot thickness on 5th day) was 23* %.

The values are drawn from patent US6649745B2 (priority 2002, dated 2003).
